# In the supplement of paper PMC8967900:
# Key:
# Assay in all cases: selective drug sensitivity score (sDSS, relative to normal bone marrow) (sDSS (score)); higher = more potent and effective on the cell line relative to normal bone marrow cells
# Conditions in all cases: 72 h
# MOLT-16 = system: MOLT-16
# RPMI-8402 = system: RPMI-8402
# TANOUE = system: TANOUE
# P12-ICHIKAWA = system: P12-ICHIKAWA
# MN-60 = system: MN-60
# ALL-PO = system: ALL-PO
# P30-OHKUBO = system: P30-OHKUBO
# RCH-ACV = system: RCH-ACV
# SEM cells = system: SEM cells
# HAL-01 = system: HAL-01
# MHH-CALL-2 = system: MHH-CALL-2
# COG-LL-332h = system: COG-LL-332h
# COG-LL-355h = system: COG-LL-355h
# MOLT-14 = system: MOLT-14
# REH = system: REH
# COG-LL-319h = system: COG-LL-319h
# PEER = system: PEER
# CCRF-HSB2 = system: CCRF-HSB2
# DND-41 = system: DND-41
# KARPAS-45 = system: KARPAS-45
# 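Further: ALL cell lines in 384-well plates, five doses spanning 10,000-fold, each plate scaled between vehicle and 100 µmol/L benzalkonium chloride controls, sDSS an adapted area-under-curve metric.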
Compound,selective drug sensitivity score (MOLT-16),selective drug sensitivity score (RPMI-8402),selective drug sensitivity score (TANOUE),selective drug sensitivity score (P12-ICHIKAWA),selective drug sensitivity score (MN-60),selective drug sensitivity score (ALL-PO),selective drug sensitivity score (P30-OHKUBO),selective drug sensitivity score (RCH-ACV),selective drug sensitivity score (SEM cells),selective drug sensitivity score (HAL-01),selective drug sensitivity score (MHH-CALL-2),selective drug sensitivity score (COG-LL-332h),selective drug sensitivity score (COG-LL-355h),selective drug sensitivity score (MOLT-14),selective drug sensitivity score (REH),selective drug sensitivity score (COG-LL-319h),selective drug sensitivity score (PEER),selective drug sensitivity score (CCRF-HSB2),selective drug sensitivity score (DND-41),selective drug sensitivity score (KARPAS-45)
COc1cc2c(N3CCN(C(=O)Nc4ccc(OC(C)C)cc4)CC3)ncnc2cc1OCCCN1CCCCC1 [Tandutinib] (top concentration 1000 nM),0,0,0,0,0,3.1,0,0,4.2,0,0,0,0,0,0,0,0,0,2.3,0
COc1cccc(-c2ccc(NC(=O)C3=C(C(=O)O)CCC3)c(F)c2)c1 [Vidofludimus] (top concentration 10000 nM),5.4,3.9,3,6.5,12.3,2.6,3,8.8,5.6,2,3,4.9,0,3.5,8.9,6.9,5.1,4,5.3,3.9
COc1cc2c(Oc3ccc4[nH]c(C)cc4c3F)ncnc2cc1OCCCN1CCCC1 [Cediranib] (top concentration 1000 nM),0,0,0,0,0,0,2.7,0,0.2,5.7,7.2,0,0,0,0,0,0,3.4,0,0.2
Cc1cc(-c2ncc(CC(=O)Nc3ccc(-c4cnccn4)cn3)cc2C)ccn1 [NVP-LGK974] (top concentration 10000 nM),4.9,4.9,5.7,3.2,4.7,3.4,2.1,5.6,2.2,-0.8,1.9,0.5,3.3,1,4,-1.3,6.9,0.5,1.3,4.6
O=C(O)CNC(=O)c1c(O)c2ccccc2n(Cc2ccccc2)c1=O [IOX-2] (top concentration 50000 nM),-0.82,-0.82,-0.82,-0.42,-0.42,-0.22,-0.12,1.18,-0.82,-0.82,1.78,-0.62,-0.82,-0.82,-0.82,4.18,-0.82,-0.82,-0.82,-0.82
COc1cc2ncnc(Nc3cccc(Cl)c3F)c2cc1OC(=O)N1CCN(C)C[C@H]1C [AZD3759] (top concentration 1000 nM),-0.04,-0.04,-0.04,-0.04,-0.04,1.26,-0.04,-0.04,-0.04,-0.04,1.56,-0.04,-0.04,-0.04,0.66,0.96,-0.04,-0.04,-0.04,-0.04
COc1cc(Br)c(Nc2nc(-c3c(C)nc4ncccn34)cs2)c(Br)c1 [PTC-209] (top concentration 10000 nM),0.72,1.02,-2.58,0.42,0.42,-0.98,4.52,7.12,2.42,0.42,1.92,-1.08,-0.38,-0.88,3.62,4.12,-0.38,0.72,-1.18,0.02
Cc1cc2c(C(=O)NC[C@H](C)c3ccccc3)c(O)c(O)cc2c(O)c1-c1c(C)cc2c(C(=O)NC[C@H](C)c3ccccc3)c(O)c(O)cc2c1O [Sabutoclax] (top concentration 25000 nM),17.6,4.38,2.98,13.7,13,12.2,15.9,16.8,10.4,-7.62,-7.82,12.8,15.6,16.8,17.5,10.8,14.5,16.3,10.6,16.2
